From the supplement of paper PMC5908809

How the values were obtained:
Test in all cases: relative IC50 (inflection point of fitted viability curve, relative to fitted max inhibition); higher = less sensitive
Conditions in all cases: 72 h
DERL-7 (IL-2 2.5 ng/mL) = system: DERL-7 (IL-2 2.5 ng/mL)
Procedure: (§1)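 Drug sensitivity and resistance testing: 5 concentrations over a 10,000-fold range, 72 h at 37 °C, viability by CellTiter-Glo normalised to DMSO and benzethonium chloride controls. IC50 is the inflection point of a logistic fit (min fixed at 0, max fitted), so it is relative to the fitted maximal inhibition. Kept only where fitted max inhibition is at least 50%.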

IMC-1 (IL-2 20 ng/mL) = system: IMC-1 (IL-2 20 ng/mL)
Procedure: as §1

KAI3 (IL-2 2.5 ng/mL) = system: KAI3 (IL-2 2.5 ng/mL)
Procedure: as §1

KHYG-1 (IL-2 2.5 ng/mL) = system: KHYG-1 (IL-2 2.5 ng/mL)
Procedure: as §1

NK-92 (IL-2 2.5 ng/mL) = system: NK-92 (IL-2 2.5 ng/mL)
Procedure: as §1

NK-YS (IL-2 2.5 ng/mL) = system: NK-YS (IL-2 2.5 ng/mL)
Procedure: as §1

NKL (IL-2 2.5 ng/mL) = system: NKL (IL-2 2.5 ng/mL)
Procedure: as §1

SNK-6 (IL-2 2.5 ng/mL) = system: SNK-6 (IL-2 2.5 ng/mL)
Procedure: as §1

YT (IL-2 2.5 ng/mL) = system: YT (IL-2 2.5 ng/mL)
Procedure: as §1

[1] = system: normal primary NK cells, pool 1 (3 donors) (IL-2 2.5 ng/mL)
Procedure: as §1

[2] = system: normal primary NK cells, pool 1 (3 donors), resting (IL-2 0 ng/mL)
Procedure: as §1

[3] = system: normal primary NK cells, pool 2 (3 donors) (IL-2 2.5 ng/mL)
Procedure: as §1

[4] = system: normal primary NK cells, pool 3 (3 donors) (IL-2 2.5 ng/mL)
Procedure: as §1

Row | Compound | relative IC50 (DERL-7 (IL-2 2.5 ng/mL)) [nM] | relative IC50 (IMC-1 (IL-2 20 ng/mL)) [nM] | relative IC50 (KAI3 (IL-2 2.5 ng/mL)) [nM] | relative IC50 (KHYG-1 (IL-2 2.5 ng/mL)) [nM] | relative IC50 (NK-92 (IL-2 2.5 ng/mL)) [nM] | relative IC50 (NK-YS (IL-2 2.5 ng/mL)) [nM] | relative IC50 (NKL (IL-2 2.5 ng/mL)) [nM] | relative IC50 (SNK-6 (IL-2 2.5 ng/mL)) [nM] | relative IC50 (YT (IL-2 2.5 ng/mL)) [nM] | relative IC50 [1] [nM] | relative IC50 [2] [nM] | relative IC50 [3] [nM] | relative IC50 [4] [nM]
1 | C[C@@H](Oc1cc(-n2cnc3ccc(CN4CCN(C)CC4)cc32)sc1C(N)=O)c1ccccc1C(F)(F)F | 27.8 | 37.1 | 187 | 17.1 | 7.34 | 90.5 | 46 | 32.2 | 53 | 1780 | 374 | 1640 | 2340
2 | COc1cc(OC2CCN(C)CC2)ccc1Nc1ncc2c(n1)n(C1CCCC1)c(=O)n2C [AZ 3146] | 2330 | 2400 | 1580 | 2060 | 3770 | 1720 | 2070 | 1870 | 2020 | 3160 | 2250 | 2410 | 2660
3 | COc1c(C)cnc(Cn2cnc3c(Cl)nc(N)nc32)c1C [BIIB021] | 68.4 | 150 | 54.3 | 61.8 | 97.5 | 79.6 | 95.7 | 33.9 | 98.2 | 181 | 226 | 104 | 254
4 | O=C(/C=C/c1cccc(S(=O)(=O)Nc2ccccc2)c1)NO [Belinostat] | 161 | 173 | 82.5 | 128 | 81.7 | 182 | 152 | 156 | 213 | 113 | 83.9 | 143 | 200
5 | CC(C)C[C@H](NC(=O)[C@H](Cc1ccccc1)NC(=O)c1cnccn1)B(O)O [Bortezomib] | 1.69 | 3.34 | 3.07 | 2.94 | 3.32 | 3.04 | 3.28 | 2.15 | 2.97 | 3.62 | 4.7 | 3.28 | 3.62
6 | C#Cc1cccc(Nc2ncnc3cc(OC)c(OCCCCCCC(=O)NO)cc23)c1 [CUDC-101] | 177 | 1020 | 270 | 131 | 277 | 889 | 412 | 276 | 267 | 293 | 198 | 347 | 504
7 | CC(C)[C@H]1C(=O)N[C@@H](CCCNC(=N)N)C(=O)NCC(=O)N[C@@H](CC(=O)O)C(=O)N[C@H](Cc2ccccc2)C(=O)N1C [Cilengitide] | – | > 10000 | – | > 10000 | > 10000 | – | > 10000 | – | > 10000 | > 10000 | > 10000 | > 10000 | > 10000
8 | Nc1nc(Cl)nc2c1ncn2[C@H]1C[C@H](O)[C@@H](CO)O1 [Cladribine] | 49.7 | 86 | 75.9 | 30.5 | 34.5 | 245 | 34.2 | 49.2 | 235 | 17.6 | 7.37 | 16.1 | 24.8
9 | Nc1ccn([C@@H]2O[C@H](CO)[C@@H](O)[C@@H]2O)c(=O)n1 [Cytarabine] | 23 | 85.5 | 50 | 27.3 | 96 | 330 | 67.1 | 193 | – | 1440 | 1230 | 1900 | 2370
10 | COc1cccc2c1C(=O)c1c(O)c3c(c(O)c1C2=O)C[C@@](O)(C(=O)CO)C[C@@H]3O[C@H]1C[C@H](N)[C@H](O)[C@H](C)O1 [Doxorubicin] | 32.3 | 45.3 | 27.2 | 56.7 | 76.2 | 29.4 | 4.41 | 41.2 | 69.6 | 118 | 59.9 | 119 | 159
11 | Nc1ccccc1NC(=O)c1ccc(CNC(=O)OCc2cccnc2)cc1 [Entinostat] | 1570 | 2330 | 399 | 954 | 479 | 1680 | 494 | 456 | 2460 | 1330 | 582 | 1530 | 2910
12 | Nc1nc(F)nc2c1ncn2[C@@H]1O[C@H](CO)[C@@H](O)[C@@H]1O [Fludarabine] | 3720 | 3130 | 2250 | 2630 | 1560 | – | 895 | – | – | 996 | 491 | 957 | 1360
13 | CC(C)c1cc(-c2n[nH]c(=O)n2-c2ccc3c(ccn3C)c2)c(O)cc1O [Ganetespib] | 5.92 | 32.3 | 11.8 | 27.4 | 16.8 | 13.1 | 10.4 | 28.3 | 35.8 | 5.67 | 6.18 | 5.41 | 9
14 | NC(=O)N1CCC(CC(=O)N2CCC([C@H]3c4ncc(Br)cc4CCc4cc(Cl)cc(Br)c43)CC2)CC1 [Lonafarnib] | 708 | – | – | 492 | 718 | 450 | – | – | 1060 | 1660 | 693 | 1580 | 1860
15 | Cc1ccc(NC(=O)c2ccc(CN3CCN(C)CC3)cc2)cc1Nc1nc(-c2cccnc2)cs1 [Masitinib] | 2000 | 3320 | 2970 | 2690 | 3690 | 2010 | 3390 | 4530 | 2490 | 3230 | 3340 | 3500 | 3230
16 | COc1ccc(C2=N[C@@H](c3ccc(Cl)cc3)[C@@H](c3ccc(Cl)cc3)N2C(=O)N2CCNC(=O)C2)c(OC(C)C)c1 [Nutlin-3] | 1470 | – | 731 | – | – | 1090 | – | 1010 | 1440 | 1490 | 442 | 1960 | 2750
17 | C=CCc1cccc(/C=N/NC(=O)CN2CCN(Cc3ccccc3)CC2)c1O [PAC-1] | 1980 | 3020 | 679 | 543 | 845 | 2740 | 591 | 996 | 1620 | 2890 | 3350 | 2050 | 1910
18 | CCCCc1nc2cc(/C=C/C(=O)NO)ccc2n1CCN(CC)CC [Pracinostat] | 168 | 233 | 69 | 149 | 112 | 189 | 76.5 | 207 | 213 | 163 | 93.7 | 159 | 211
19 | CNC(=O)c1cc(Oc2ccc(NC(=O)Nc3ccc(Cl)c(C(F)(F)F)c3)c(F)c2)ccn1 [Regorafenib] | 1190 | – | 3360 | 2130 | 1040 | 1620 | 1570 | 86.7 | 1660 | 3020 | 1940 | 1750 | –
20 | COc1ccc(CCc2nc3cc(-c4c(C)noc4C)ccc3n2C[C@H](C)N2CCOCC2)cc1Cl [SGC-CBP30] | 1490 | – | 10100 | 4750 | 10200 | 3300 | 1570 | – | 5050 | 3540 | 4340 | 3830 | 5310
21 | CN1CCC(CNc2ccc3ncc(-c4cccc(OC(F)(F)F)c4)n3n2)CC1 [SGI-1776] | 1120 | 3130 | 2000 | 2210 | 2480 | 2450 | 1780 | 3220 | 2540 | 2200 | 1580 | 1590 | 2520
22 | CC(C)(C)c1cnc(CSc2cnc(NC(=O)C3CCNCC3)s2)o1 [SNS-032] | 61.3 | 36.2 | 75.8 | 277 | 224 | 38.6 | 22.6 | 74.8 | 84.1 | 45.8 | 53.4 | 54.3 | 102
23 | c1ccc2c(CCNc3ccc(Nc4ccncc4)cc3)c[nH]c2c1 [Serdemetan] | 329 | 2580 | 436 | 1670 | 1790 | 880 | 212 | 2980 | 1820 | 914 | 516 | 1260 | 1140
24 | C=CCNC1=C2C[C@@H](C)C[C@H](OC)[C@H](O)[C@@H](C)/C=C(\C)[C@H](OC(N)=O)[C@@H](OC)/C=C\C=C(/C)C(=O)NC(=CC1=O)C2=O [Tanespimycin] | 126 | 291 | 76.3 | 247 | 123 | 80.2 | 59.1 | 106 | 248 | 79.8 | 145 | 127 | 290
25 | COc1cc2c(NC3CCN(C(C)C)CC3)nc(N3CCC(F)(F)CC3)nc2cc1OCCCN1CCCC1 [UNC0642] | 3160 | 2450 | 987 | – | – | 2440 | 1640 | 1530 | 2690 | 1810 | 1560 | 3390 | 3450
26 | CCCCC(=O)OCC(=O)[C@]1(O)Cc2c(O)c3c(c(O)c2[C@@H](O[C@H]2C[C@H](NC(=O)C(F)(F)F)[C@H](O)[C@H](C)O2)C1)C(=O)c1c(OC)cccc1C3=O [Valrubicin] | 63.4 | 96 | 80.7 | 164 | 160 | 75.1 | 6.61 | 88.1 | 235 | 256 | 179 | 245 | 381
27 | O=C(Nc1ccc(-c2ccnc(Nc3ccc(N4CCOCC4)cc3)n2)cc1)C1CCCN1 (stereo not drawn) [XL019] | 1370 | 3200 | 1660 | 2490 | – | – | 658 | – | – | 2220 | 1380 | 1510 | 1870
28 | COCC[n+]1c2c(n(Cc3cnccn3)c1C)C(=O)c1ccccc1C2=O [YM155] | 9.75 | < 1 | 10 | 17.1 | 17.8 | 15.5 | 3.09 | 32.5 | 7.77 | 691 | 209 | 780 | 1330
